Results on nine compounds are retold here after patent US7576217B2, “Quinolines as allosteric enhancers of the GABAB receptors” (Hoffman-La Roche Inc., priority 2004, dated 2009).

What is called Emax is the maximal effect, on the per cent scale that the assay sets. The term EC50 denotes the concentration at which the effect is half-maximal.

For series [1] the following is noted: rats; cited from earlier work.
Another series concerns the target T1, human GABABR1aR2a (Homo sapiens, UniProt O75899+Q9UBS5).
T1 construct: expressed in transfected cells
As to the kind of experiment: Intracellular Ca2+ mobilization assay in CHO-GABABR1aR2a-Gα16 cell (FLIPR). The settings on record: for GABA shift Log [EC50(GABA + 10 μM cp)/EC50(GABA alone)]: GABA 0.0003-30 μM with and without 10 μM enhancer; for Emax: enhancer 0.001-30 μM in presence of 10 nM GABA (EC10), applied 15 min before GABA, read-out: Emax (%) at 10 nM GABA alone = 0% 10 μM GABA alone = 100%; for EC50: enhancer concentration-response in presence of 10 nM GABA (EC10). Format: cell-based. As to the method:
Intracellular Ca^2+ Mobilization Assay
The Chinese Hamster Ovary (CHO) cells stably expressing human GABABR1aR2a and Gα16 were seeded at 5×10^4 cells/well in the poly-D-lysine treated, 96-well, black/clear-bottomed plates (BD Biosciences, Palo Alto, Calif.). 24 h later, the cells were loaded for 90 min at 37° C. with 4 μM Flou-4 acetoxymethyl ester (Catalog No. F-14202, Molecular Probes, Eugene, Oreg.) in loading buffer (1×HBSS, 20 mM HEPES, 2.5 mM Probenecid). Hanks' Balanced Salt Solution (HBSS) (10×) (catalog No. 14065-049) and HEPES (1M) (catalog No. 15630-056) were purchased from Invitrogen, Carlsbad, Calif. Probenecid (250 mM) (catalog No. P8761) was from Sigma, Buchs, Switzerland. The cells were washed five times with loading buffer to remove excess dye and intracellular calcium mobilization, [Ca^2+]i were measured using a Fluorometric Imaging Plate Reader (FLIPR, Molecular Devices, Menlo Park, Calif.) as described previously (Porter et al., Br. J. Pharmacol., 128, 13-20, 1999). The enhancers were applied 15 min before the application of the GABA. For GABA shift assay, concentration-response curves of GABA (0.0003-30 μM) were determined in the absence and presence of […] enhancer. The GABA-shift is defined as Log [EC50 (GABA+10 μM enhancer)/EC50 (GABA alone)]. The % maximum enhancing effect (% Emax) and potency (EC50 value) of each enhancer was determined from concentration-response curve of the enhancer (0.001-30 μM) in the presence of 10 nM GABA (EC10). Responses were measured as peak increase in fluorescence minus basal, normalized to the maximal stimulatory effect induced by 10 μM GABA alone (considered 100%) and 10 nM GABA alone (considered 0%). The data were fitted with the equation Y=100+(Max−100)/(1+(EC50/[drug])^n) where Max is the maximum effect, EC50 the concentration eliciting a half-maximum effect and n the Hill slope.

The conditions of series [2]: PO, cited from earlier work.
The conditions of series [3]: cited from earlier work.

Read-outs that look alike come from different tables or passages of the source.

T1 sequence (Q9UBS5 15-961 limits assumed): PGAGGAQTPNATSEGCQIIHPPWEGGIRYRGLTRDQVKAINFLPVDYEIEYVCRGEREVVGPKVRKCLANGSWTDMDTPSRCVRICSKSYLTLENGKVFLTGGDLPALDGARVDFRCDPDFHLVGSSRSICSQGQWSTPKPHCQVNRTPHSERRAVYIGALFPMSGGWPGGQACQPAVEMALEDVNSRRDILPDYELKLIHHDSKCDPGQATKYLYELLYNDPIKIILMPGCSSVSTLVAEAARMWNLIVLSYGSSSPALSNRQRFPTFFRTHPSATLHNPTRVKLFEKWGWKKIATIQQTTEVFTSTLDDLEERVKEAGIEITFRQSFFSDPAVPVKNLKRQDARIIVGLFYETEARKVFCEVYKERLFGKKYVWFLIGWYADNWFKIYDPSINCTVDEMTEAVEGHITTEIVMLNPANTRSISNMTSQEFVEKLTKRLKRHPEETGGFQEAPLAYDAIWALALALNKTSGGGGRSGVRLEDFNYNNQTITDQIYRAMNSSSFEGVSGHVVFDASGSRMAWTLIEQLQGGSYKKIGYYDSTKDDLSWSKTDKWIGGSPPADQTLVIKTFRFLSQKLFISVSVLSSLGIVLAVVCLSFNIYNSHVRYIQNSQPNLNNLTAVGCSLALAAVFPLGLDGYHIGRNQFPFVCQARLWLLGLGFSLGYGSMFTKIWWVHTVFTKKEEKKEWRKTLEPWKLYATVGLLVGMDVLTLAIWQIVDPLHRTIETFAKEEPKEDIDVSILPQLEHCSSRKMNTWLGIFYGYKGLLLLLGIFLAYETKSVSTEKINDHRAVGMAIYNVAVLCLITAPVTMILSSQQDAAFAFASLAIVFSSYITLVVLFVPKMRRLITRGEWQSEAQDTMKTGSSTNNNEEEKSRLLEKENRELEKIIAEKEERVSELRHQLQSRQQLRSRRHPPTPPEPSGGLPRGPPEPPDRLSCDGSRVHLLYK
T1 sequence (O75899 42-941): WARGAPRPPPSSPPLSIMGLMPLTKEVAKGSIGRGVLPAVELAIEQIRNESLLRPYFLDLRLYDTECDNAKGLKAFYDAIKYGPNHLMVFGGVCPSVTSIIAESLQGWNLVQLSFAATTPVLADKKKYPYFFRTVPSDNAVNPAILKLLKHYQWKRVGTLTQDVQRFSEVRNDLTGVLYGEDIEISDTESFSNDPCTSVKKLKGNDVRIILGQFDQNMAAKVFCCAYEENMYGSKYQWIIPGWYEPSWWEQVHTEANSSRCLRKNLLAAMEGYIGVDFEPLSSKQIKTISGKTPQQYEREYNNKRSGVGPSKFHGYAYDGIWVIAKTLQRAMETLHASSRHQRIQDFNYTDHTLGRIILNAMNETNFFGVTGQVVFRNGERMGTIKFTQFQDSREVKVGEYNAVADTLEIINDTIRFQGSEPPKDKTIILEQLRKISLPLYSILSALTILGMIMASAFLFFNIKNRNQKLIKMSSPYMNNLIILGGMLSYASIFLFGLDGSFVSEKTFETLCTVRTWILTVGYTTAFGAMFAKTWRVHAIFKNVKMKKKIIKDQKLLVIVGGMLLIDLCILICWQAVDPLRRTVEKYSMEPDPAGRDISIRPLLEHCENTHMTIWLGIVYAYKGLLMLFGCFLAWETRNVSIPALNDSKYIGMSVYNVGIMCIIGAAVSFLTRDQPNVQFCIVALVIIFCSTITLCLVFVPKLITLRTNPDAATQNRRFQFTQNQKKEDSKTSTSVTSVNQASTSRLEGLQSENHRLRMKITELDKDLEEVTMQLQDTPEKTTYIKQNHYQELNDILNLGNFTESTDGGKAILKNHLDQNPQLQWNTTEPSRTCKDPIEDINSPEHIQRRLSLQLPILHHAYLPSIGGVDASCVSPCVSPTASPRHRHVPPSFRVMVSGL

With `CC(C)(CO)Cc1cc(C(C)(C)C)c(O)c(C(C)(C)C)c1` [CGP7930, 2,6-di-tert-butyl-4-(3-hydroxy-2,2-dimethyl-propyl)-phenol], the decreasing cocaine self-administration result in series [1] is listed as “effective”.

Turning to `Cc1nc2ccc(OC(F)(F)F)cc2c(-c2ccccc2)c1C(=O)C(F)(F)F` [Example 11, 2,2,2-Trifluoro-1-(2-methyl-4-phenyl-6-trifluoromethoxy-quinolin-3-yl)-ethanone], on human GABABR1aR2a, the “GABA shift Log [EC50(GABA + 10 μM cp)/EC50(GABA alone)]” value (shortened to “GABA shift Log”) was −1.00, the Emax turned out to be 65% and the EC50 amounted to 0.8 µM.

In the case of `NCC(CC(=O)O)c1ccc(Cl)cc1` (stereo not drawn) [Baclofen, β-chlorophenyl GABA], the “effect on spontaneous locomotor activity, rotarod, body temperature and traction test” value in series [2] (2.5-15 mg/kg) was “showed these side effects”.

`Cc1nc2ccc(Br)cc2c(-c2ccc(F)cc2)c1C(=O)C1CC1` [Example 56, [6-Bromo-4-(4-fluoro-phenyl)-2-methyl-quinolin-3-yl]-cyclopropyl-methanone]: on human GABABR1aR2a, the “GABA shift Log” value is on record as −0.90, the Emax amounted to 58% and the EC50 is 2.2 µM.

For the compound `Cc1nc2ccc(N3CCCCC3)cc2c(-c2ccc(F)cc2)c1C(=O)C(F)(F)F` [Example 33, 2,2,2-Trifluoro-1-[4-(4-fluoro-phenyl)-2-methyl-6-piperidin-1-yl-quinolin-3-yl]-ethanone], on human GABABR1aR2a, the “GABA shift Log” value is on record as −0.90, the Emax stood at 62% and the EC50 was found to be 0.33 µM.

Consider `Cc1nc2ccc(Br)cc2c(-c2ccccc2)c1C(=O)C(F)(F)F` [Example 3, 1-(6-Bromo-2-methyl-4-phenyl-quinolin-3-yl)-2,2,2-trifluoro-ethanone], for which, on human GABABR1aR2a, the “GABA shift Log” value is reported as −1.20, the maximum response (Emax) came to 124% and the EC50 was 0.8 µM.

For `Cc1nc2cc3c(cc2c(-c2ccccc2)c1C(=O)C(F)(F)F)OC(F)(F)O3` [Example 19, 1-(2,2-Difluoro-6-methyl-8-phenyl-[1,3]dioxolo[4,5-g]quinolin-7-yl)-2,2,2-trifluoro-ethanone], at human GABABR1aR2a, the “GABA shift Log” value was −0.70, the Emax is 63% and the EC50 is 0.9 µM.

Consider `CSc1nc(NC2CCCC2)c([N+](=O)[O-])c(NC2CCCC2)n1` [GS39783, N,N_-dicyclopentyl-2-methylsulfanyl-5-nitro-pyrimidine-4,6-diamine], for which the “effect on spontaneous locomotor activity, rotarod, body temperature and traction test” value in series [2] (0.1-200 mg/kg) is listed as “had no effect”. The decreasing cocaine self-administration result in series [1] is recorded as “effective”. In addition, in series [3] (21 days, 10 mg/kg, P.O., once daily), the “tolerance after chronic treatment” value is listed as “No tolerance”. The anxiolytic-like effects result in series [3] (elevated plus maze (rat), elevated zero maze (mice and rats), stress-induced hyperthermia (mice)) was “exhibited anxiolytic-like effects”.

Consider `CC(=O)c1c(C)nc2ccc(OC(F)(F)F)cc2c1-c1cccc(Cl)c1` [Example 15, 1-[4-(3-Chloro-phenyl)-2-methyl-6-trifluoromethoxy-quinolin-3-yl]-ethanone], for which, on human GABABR1aR2a, the “GABA shift Log” value is recorded as −1.15, the Emax was found to be 67% and the EC50 worked out at 1.6 µM.
